Measurements from PubChem BioAssay AID330 (DTP/NCI, 2004).
“And” between values parts separate entries of the source, which are not always exact repeats. Equal values may be shown once. Inconclusive results and toxic doses are left out.

System: P388 leukemia ip, CD2F1 mice, survival T/C
Assay: NCI In Vivo Anticancer Drug Screen. Data for tumor model P388 Leukemia (intraperitoneal) in CD2F1 (CDF1) mice
Details: endpoint: median survival time, higher = longer survival
In short: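 Mice carrying the transplanted tumor received test compound or vehicle. Survival was recorded in each group, and the value is the treated-group measurement divided by that of the vehicle-treated control group.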

[1] = dose: 50.0 mg/kg/injection, schedule: Q01DX009 (ip), vehicle: saline with Tween-80
[2] = dose: 100.0 mg/kg/injection, schedule: Q01DX009 (ip), vehicle: saline with Tween-80
[3] = dose: 200.0 mg/kg/injection, schedule: Q01DX009 (ip), vehicle: saline with Tween-80
[4] = dose: 60.0 mg/kg/injection, schedule: Q01DX005 (ip), vehicle: saline with Tween-80
[5] = dose: 120.0 mg/kg/injection, schedule: Q01DX005 (ip), vehicle: saline with Tween-80
[6] = dose: 50.0 mg/kg/injection, schedule: Q01DX005 (ip), vehicle: Klucel (hydroxypropylcellulose) (HPC)
[7] = dose: 100.0 mg/kg/injection, schedule: Q01DX005 (ip), vehicle: Klucel (hydroxypropylcellulose) (HPC)

Structure (SMILES): CCCCCCC(=O)/C=C/c1ccc(OC)c(OC)c1
- T/C [1]: 107 % of control
- T/C [2]: 114 % of control
- T/C [3]: 115 % of control

Structure (SMILES): CCN(CC)C(=O)c1c2nc3c(C(=O)N(CC)CC)ccc(C)c3oc-2c(C)c(=O)c1N
- T/C [4]: 98 % of control
- T/C [5]: 88 % of control

Structure (SMILES): O=C(O)CCC(=O)CCC(=O)c1ccc(O)c2ncccc12
- T/C [6]: 92 % of control
- T/C [7]: 105 % of control
- T/C (dose: 200.0 mg/kg/injection, schedule: Q01DX005 (ip), vehicle: Klucel (hydroxypropylcellulose) (HPC)): 111 % of control

Structure (SMILES): COc1cc(C2C3=C(CC(C)(C)CC3=O)Oc3cc4c(cc32)OCO4)cc(OC)c1OC (centres undefined)
- T/C [4]: 97 % of control
- T/C [5]: 98 % of control

Structure (SMILES): Cc1ccc(S(=O)OC2CC(C)CCC2C(C)C)cc1 (centres undefined)
- T/C (dose: 50.0 mg/kg/injection, schedule: Q01DX009 (ip), vehicle: Klucel (hydroxypropylcellulose) (HPC)): 100 % of control
- T/C (dose: 100.0 mg/kg/injection, schedule: Q01DX009 (ip), vehicle: Klucel (hydroxypropylcellulose) (HPC)): 101 % of control
- T/C (dose: 200.0 mg/kg/injection, schedule: Q01DX009 (ip), vehicle: Klucel (hydroxypropylcellulose) (HPC)): 100 % of control

Structure (SMILES): O=C1OCC/C1=C\NCCCN/C=C1\CCOC1=O
- T/C [4]: 107 % of control
- T/C [5]: 100 % of control
- T/C (dose: 240.0 mg/kg/injection, schedule: Q01DX005 (ip), vehicle: saline with Tween-80): 105 % of control

Structure (SMILES): Cc1oc2c(c(=O)c1C)C1CCC(C2)N1C (centres undefined)
- T/C [6]: 106 % of control
- T/C [7]: 97 % of control

Structure (SMILES): Cc1ncc(C(=O)c2cc(Cl)ccc2O)cn1
- T/C (dose: 100.0 mg/kg/injection, schedule: Q04DX003 (ip), vehicle: saline): 100 % of control
- T/C (dose: 200.0 mg/kg/injection, schedule: Q04DX003 (ip), vehicle: saline): 110 % of control
- T/C (dose: 400.0 mg/kg/injection, schedule: Q04DX003 (ip), vehicle: saline): 100 % of control

Structure (SMILES): COc1cccc2c1C(=O)c1c(O)c3c(c(O)c1C2=O)C[C@](O)(C(=O)CO)CC3OC1CC(N)C(OC2CCCCO2)C(C)O1 (some centres undefined)
- T/C (dose: 0.78 mg/kg/injection, schedule: Q04DX003 (ip), vehicle: water): 122 % of control
- T/C (dose: 3.12 mg/kg/injection, schedule: Q04DX003 (ip), vehicle: water): 153 % of control and 240 % of control
- T/C (dose: 3.13 mg/kg/injection, schedule: Q04DX003 (ip), vehicle: water): 161 % of control
- T/C (dose: 3.75 mg/kg/injection, schedule: Q01DX005 (ip), vehicle: water): 154 % of control
- T/C (dose: 6.25 mg/kg/injection, schedule: Q04DX003 (ip), vehicle: water): 192 % of control and 200 % of control and 280 % of control
- T/C (dose: 7.5 mg/kg/injection, schedule: Q01DX005 (ip), vehicle: water): 151 % of control
- T/C (dose: 12.5 mg/kg/injection, schedule: Q04DX003 (ip), vehicle: water): 154 % of control and 416 % of control
- T/C (dose: 15.0 mg/kg/injection, schedule: Q01DX005 (ip), vehicle: water): 196 % of control
- T/C (dose: 25.0 mg/kg/injection, schedule: Q04DX003 (ip), vehicle: water): 91 % of control
- T/C (dose: 50.0 mg/kg/injection, schedule: Q04DX003 (ip), vehicle: water): 87 % of control

Structure (SMILES): CSCC1Cc2ccccc2N=C(c2ccccc2)O1 (centres undefined)
- T/C (dose: 100.0 mg/kg/injection, schedule: Q01DX001 (ip), vehicle: saline with Tween-80): 100 % of control
- T/C (dose: 200.0 mg/kg/injection, schedule: Q01DX001 (ip), vehicle: saline with Tween-80): 97 % of control
- T/C (dose: 400.0 mg/kg/injection, schedule: Q01DX001 (ip), vehicle: saline with Tween-80): 100 % of control

Structure (SMILES): CCCCCCCCCCC1OCN2CCCCC12 (centres undefined)
- T/C (dose: 50.0 mg/kg/injection, schedule: Q01DX005 (ip), vehicle: saline): 108 % of control
- T/C (dose: 100.0 mg/kg/injection, schedule: Q01DX005 (ip), vehicle: saline): 104 % of control
- T/C (dose: 200.0 mg/kg/injection, schedule: Q01DX005 (ip), vehicle: saline): 118 % of control

Structure (SMILES): O=C(N/N=C/c1ccccc1O)N/N=C/c1ccccc1O
- T/C [1]: 96 % of control
- T/C [2]: 96 % of control
- T/C [3]: 96 % of control
- T/C (dose: 400.0 mg/kg/injection, schedule: Q01DX009 (ip), vehicle: saline with Tween-80): 87 % of control

Structure (SMILES): CSC(=S)n1nc(-c2ccccc2)c(N=Nc2ccc(Br)cc2)c1C
- T/C (dose: 100.0 mg/kg/injection, schedule: Q04DX002 (ip), vehicle: Klucel (hydroxypropylcellulose) (HPC)): 98 % of control
- T/C (dose: 200.0 mg/kg/injection, schedule: Q04DX002 (ip), vehicle: Klucel (hydroxypropylcellulose) (HPC)): 100 % of control
- T/C (dose: 400.0 mg/kg/injection, schedule: Q04DX002 (ip), vehicle: Klucel (hydroxypropylcellulose) (HPC)): 94 % of control
